By IC50 is commonly meant the concentration that inhibits the measured activity by half. Low values mean higher potency, high ones lower potency.

Counter-ions that a name gives are not always drawn.

Type in all cases: cell-based
Assay [1] deals with T1, HCN2 (Homo sapiens, UniProt Q9UL51).
T1 sequence (Q9UL51 1-889): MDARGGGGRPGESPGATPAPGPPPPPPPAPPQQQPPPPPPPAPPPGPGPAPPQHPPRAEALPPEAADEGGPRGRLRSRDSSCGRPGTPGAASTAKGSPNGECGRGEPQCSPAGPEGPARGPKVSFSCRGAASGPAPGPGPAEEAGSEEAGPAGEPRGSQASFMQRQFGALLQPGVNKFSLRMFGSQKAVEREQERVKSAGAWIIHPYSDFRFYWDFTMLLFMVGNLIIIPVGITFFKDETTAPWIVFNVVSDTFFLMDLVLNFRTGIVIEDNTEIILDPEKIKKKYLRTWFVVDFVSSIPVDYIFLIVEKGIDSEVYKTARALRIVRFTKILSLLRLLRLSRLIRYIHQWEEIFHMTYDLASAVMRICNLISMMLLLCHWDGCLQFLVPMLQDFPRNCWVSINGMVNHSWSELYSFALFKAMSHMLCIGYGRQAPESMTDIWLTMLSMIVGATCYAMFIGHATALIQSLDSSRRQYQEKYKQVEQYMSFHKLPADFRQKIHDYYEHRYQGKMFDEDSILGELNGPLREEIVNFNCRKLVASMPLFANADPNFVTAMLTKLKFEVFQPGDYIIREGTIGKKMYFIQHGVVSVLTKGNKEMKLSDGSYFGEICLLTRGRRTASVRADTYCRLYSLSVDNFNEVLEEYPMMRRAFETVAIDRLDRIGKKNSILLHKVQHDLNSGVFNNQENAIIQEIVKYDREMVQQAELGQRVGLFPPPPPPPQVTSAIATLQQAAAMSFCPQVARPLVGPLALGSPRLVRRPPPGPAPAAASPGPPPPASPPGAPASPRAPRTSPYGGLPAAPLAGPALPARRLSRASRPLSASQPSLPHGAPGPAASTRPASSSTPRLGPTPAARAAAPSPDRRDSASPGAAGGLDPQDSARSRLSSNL
Description: HCN2 assay using the Sophion Qube (Example 50B). Particulars: Sophion Qube protocol (SQ). As for the experimental part:
Solutions for recording HCN currents were:
For HCN1 and HCN2 the cells were held at −30 mV and then stepped to −110 mV for 2 seconds before stepping back to −30 mV, this represents 1 experimental sweep. This voltage protocol was applied every 20 seconds for the duration of the experiment. Both the vehicle (0.3% DMSO) and full block (3 mM CsCl) addition periods were applied for 10 experimental sweeps each. The compound addition period was applied for 30 sweeps.
The currents evoked by the step to −110 mV (HCN1 and HCN2) or −130 mV (HCN4) were measured for the analysis of the percentage inhibition by test compounds. The current amplitudes were measured by subtracting metric A from metric B (see FIG. 2) with inhibition calculated by normalising to the vehicle addition (0.3% DMSO) and full inhibition by 3 mM CsCl in the same well.
In total, compound was applied to the well for 600 seconds.

In assay [2] the target is T1, HCN2. Put plainly: HCN2 assay using PatchXpress 7000A (Example 50A). Particulars: PatchXpress protocol (PX). An excerpt:
(§1) Solutions for recording HON currents were:
For HCN1 and HCN2, the pulse protocol involved stepping from a holding potential of −30 mV to −110 mV (see FIG. 1A) for 2 seconds to evoke the current. The membrane voltage was then stepped back to −30 mV for a further 8 seconds. This sequence was evoked repeatedly every 10 seconds throughout the experiment, starting prior to drug (Control A) and during cumulative additions of 5 increasing compound concentrations, then finally a 100% inhibiting concentration of cesium chloride (CsCl, 3 mM).
(§2) The peak inward current measured at the end of the pulse to −110 mV (HCN1 and HCN2) or −130 mV (HCN4) was measured and any leak current subtracted to calculate the HCN current. The HCN current amplitude was measured after each control or compound addition and normalized to the control amplitude (Control A).
(§3) All experiments were performed at room temperature (approximately 22° C.).
(§4) Each test compound concentration was applied to the cell for seven (7) minutes, at which point the next cumulative concentration was applied. 3 mM CsCl was applied to each cell for 2 minutes at the end of each experiment (Control B) to determine 100% inhibition level of the HCN current.

In another assay the target is T2, HCN4 (Homo sapiens, UniProt Q9Y3Q4).
T2 sequence (Q9Y3Q4 1-1203): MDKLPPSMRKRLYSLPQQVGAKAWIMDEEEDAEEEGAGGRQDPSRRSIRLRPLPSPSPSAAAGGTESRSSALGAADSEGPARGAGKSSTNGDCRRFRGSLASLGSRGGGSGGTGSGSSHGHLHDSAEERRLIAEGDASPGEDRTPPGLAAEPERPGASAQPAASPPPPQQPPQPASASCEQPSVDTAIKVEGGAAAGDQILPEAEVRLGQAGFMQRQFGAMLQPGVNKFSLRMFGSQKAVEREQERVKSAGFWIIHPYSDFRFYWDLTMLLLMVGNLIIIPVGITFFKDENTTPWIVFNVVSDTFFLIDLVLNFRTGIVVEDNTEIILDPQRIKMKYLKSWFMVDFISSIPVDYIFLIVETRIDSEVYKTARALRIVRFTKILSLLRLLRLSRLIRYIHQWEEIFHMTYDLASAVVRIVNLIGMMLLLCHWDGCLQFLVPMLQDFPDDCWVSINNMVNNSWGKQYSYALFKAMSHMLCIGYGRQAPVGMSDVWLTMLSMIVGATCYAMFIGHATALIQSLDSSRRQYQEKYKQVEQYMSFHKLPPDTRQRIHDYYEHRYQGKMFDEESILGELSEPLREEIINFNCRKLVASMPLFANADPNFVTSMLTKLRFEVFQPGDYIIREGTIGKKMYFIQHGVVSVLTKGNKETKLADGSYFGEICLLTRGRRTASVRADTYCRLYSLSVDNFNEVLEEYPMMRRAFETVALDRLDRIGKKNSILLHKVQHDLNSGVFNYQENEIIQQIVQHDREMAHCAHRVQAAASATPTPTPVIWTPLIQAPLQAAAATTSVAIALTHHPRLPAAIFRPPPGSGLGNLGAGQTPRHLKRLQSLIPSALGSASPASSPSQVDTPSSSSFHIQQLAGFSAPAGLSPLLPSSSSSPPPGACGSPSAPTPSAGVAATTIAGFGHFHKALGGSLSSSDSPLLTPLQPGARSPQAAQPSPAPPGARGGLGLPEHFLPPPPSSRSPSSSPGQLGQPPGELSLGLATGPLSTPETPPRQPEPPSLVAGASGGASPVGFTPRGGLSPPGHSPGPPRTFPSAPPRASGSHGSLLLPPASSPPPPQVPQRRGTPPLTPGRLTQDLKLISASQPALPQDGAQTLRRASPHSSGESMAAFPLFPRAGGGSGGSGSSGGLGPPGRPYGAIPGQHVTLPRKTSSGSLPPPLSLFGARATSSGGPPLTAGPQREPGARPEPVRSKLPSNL
Description: HCN4 assay using PatchXpress 7000A (Example 50A). The note with it: PatchXpress protocol (PX). How it is done: as §1
For HCN4, the pulse protocol involved stepping from a holding potential of −30 mV to −130 mV (see FIG. 1B) for 4 seconds to evoke the current.
as §2, §3, §4

In turn, `Cc1ccc(F)c(C[C@H](N)c2ncccc2-n2ncc3cc(F)ccc32)n1` [Example 34, (S)-1-[3-(5-Fluoro-1H-indazole-1-yl)pyridine-2-yl]-2-(3-fluoro-6-methylpyridine-2-yl)-ethan-1-amine hydro-chloride] displayed an IC50 against HCN2 [1] of 4.5 µM.

Compound `COc1ccc2c(cnn2-c2cccnc2[C@@H](N)Cc2ncccc2F)c1` [Example 32, (S)-2-(3-fluoropyridine-2-yl)-1-[3-(5-methoxy-1H-indazole-1-yl)-pyridine-2-yl]ethan-1-amine hydrochloride] registered a half-inhibitory concentration (IC50) on HCN2 [1] of 28.6 µM. With `N#Cc1nc(C[C@H](N)c2ncccc2-n2ncc3cc(Br)ccc32)ccc1F` [Example 46, (S)-6-{2-Amino-2-[3-(5-bromo-1H-indazol-1-yl)pyridine-2-yl]-ethyl}-3-fluoropyr-idine-2-carbonitrile hydrochloride], the half-inhibitory concentration (IC50) on HCN2 [1] was determined as 1.2 µM. On the same count and under the same terms, in the case of `COc1ccc2c(cnn2-c2cccnc2[C@@H](N)Cc2nc(C#N)ccc2F)c1` [Example 37] it was 6.7 µM.

Regarding `N[C@@H](Cc1ccc(F)cn1)c1ncccc1-n1ncc2ccccc21` [Example 18, (S)-1-[3-(1H-indazole-1-yl)pyridine-2-yl]-2-(5-fluoropyridine-2-yl)-ethan-1-amine hydro-chloride], the IC50 against HCN2 [2] turned out to be 0.5 µM; on HCN4 it was 11.7 µM. With `N#Cc1ccc(F)c(C[C@H](N)c2ncccc2-n2ncc3cc(Br)ccc32)n1` [Example 43, (S)-6-{2-Amino-2-[3-(5-bromo-1H-indazol-1-yl)pyridine-2-yl-ethyl}-5-fluoropyr-idine-2-carbonitrile hydrochloride], the concentration for half-maximal inhibition (IC50) at HCN2 [1] was determined as 0.78 µM.

In the case of `N[C@@H](Cc1ncccc1F)c1ncccc1-n1ncc2ccccc21` [Example 10, (S)-1-[3-(1H-indazole-1-yl)pyridine-2-yl]-2-(3-fluoropyridine-2-yl)ethan-1-amine hydrochloride], the results for the half-maximal inhibitory concentration (IC50) against HCN2 [2] and on HCN4 were 0.08 µM and 4.2 µM, respectively. On the same counts, the results for `N[C@@H](Cc1ccccn1)c1ccccc1-n1ncc2cnccc21` [Example 7, (S)-1-[2-(1H-pyrazolo-[4,3-c]pyridine-1-yl)-phenyl]-2-(pyridine-2-yl)ethan-1-amine hydrochloride] are 7 µM and more than 30 µM. The compound `N[C@@H](Cc1ncccc1F)c1ncccc1-n1ncc2cc(C(F)(F)F)ccc21` [Example 40, (S)-1-[3-(5-Trifluoro-methyl-1H-indazole-1-yl)pyridine-2-yl]-2-(3-fluoropyridine-2-yl)-ethan-1-amine hydro-chloride] showed a half-inhibitory concentration (IC50) against HCN2 [1] of 11.7 µM. For `N#Cc1cccc(C[C@H](N)c2ncccc2-n2ncc3ccccc32)n1` [Example 6, (S)-6-{2-[3-(1H-ind-azol-1-yl)pyridine-2-yl]-2-aminoethyl}pyridine-2-carbonitrile hydro-chloride], the half-maximal inhibitory concentration (IC50) came out at 1.1 µM on HCN2 [2] and 22.2 µM on HCN4. In the case of `Cc1ccc(C#N)nc1C[C@H](N)c1ncccc1-n1ncc2cc(C(F)(F)F)ccc21` [Example 33, (S)-6-{2-Amino-2-[3-(5-trifluoromethyl-1H-indazol-1-yl)pyridine-2-yl]ethyl}-5-methyl-pyridine-2-carbonitrile hydrochloride], on HCN2 [1], the half-maximal inhibitory concentration (IC50) was 4.9 µM.

Turning to `CCc1cccc(C[C@H](N)c2ncccc2-n2ncc3ccccc32)n1` [Example 15, (S)-1-[3-(1H-indazole-1-yl)pyridine-2-yl]-2-(6-ethylpyridine-2-yl)-ethan-1-amine hydro-chloride], the IC50 at HCN2 [2] is 2.1 µM; at HCN4 it was 14.8 µM. The compound `Cc1ccc(C#N)nc1C[C@H](N)c1cnccc1-n1ncc2cc(Cl)ccc21` [Example 42, (S)-6-{2-Amino-2-[4-(5-chloro-1H-indazol-1-yl)pyridine-3-yl]-ethyl}-5-methylpyr-idine-2-carbonitrile hydrochloride] gave a concentration for half-maximal inhibition (IC50) at HCN2 [1] of 4.9 µM. This lies in the single-digit micromolar range.

On to `CS(=O)(=O)c1ccc(F)c(C[C@H](N)c2ncccc2-n2ncc3ccccc32)n1` [Example 21, (S)-1-[3-(1H-indazole-1-yl)pyridine-2-yl]-2-(3-fluoro-6-methyl-sulfonylpyridine-2-yl)-ethan-1-amine formate], for which the IC50 is 1.1 µM at HCN2 [2] and not below 30 µM against HCN4. In the same order, the values of `NC(=O)c1cccc(C[C@H](N)c2ncccc2-n2ncc3ccccc32)n1` [Example 9, (S)-6-{2-[3-(1H-ind-azol-1-yl)pyridine-2-yl]-2-aminoethyl}pyridine-2-carboxamide hydro-chloride] are 17.3 µM and more than 30 µM. Regarding `Cc1ccc(F)c(C[C@H](N)c2ncccc2-n2ncc3cc(Cl)ccc32)n1` [Example 44, (S)-1-[3-(5-Chloro-1H-indazole-1-yl)pyridine-2-yl]-2-(3-fluoro-6-methylpyridine-2-yl)-ethan-1-amine hydro-chloride], the IC50 on HCN2 [1] is 1.5 µM.

For `N[C@@H](Cc1cccc(F)n1)c1ncccc1-n1ncc2ccccc21` [Example 17, (S)-1-[3-(1H-indazole-1-yl)pyridine-2-yl]-2-(6-fluoropyridine-2-yl)ethan-1-amine hydrochloride], the concentration for half-maximal inhibition (IC50) is 3.3 µM against HCN2 [2] and 14.7 µM against HCN4.
